According to PubChem BioAssay (NCI):
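48-hour exposure; five concentrations; linearly interpolated endpoints. Definition used: TGI = concentration required for complete inhibition of growth.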

Experiments:
Experiment in all cases: NCI anticancer screen, dose series, 48 h
A498 renal = test system: A498 renal
ACHN renal = test system: ACHN renal
HCT-116 colon = test system: HCT-116 colon
K-562 leukemia = test system: K-562 leukemia
MDA-N = test system: MDA-N
SF-268 CNS = test system: SF-268 CNS
SF-295 CNS = test system: SF-295 CNS
SK-MEL-2 melanoma = test system: SK-MEL-2 melanoma
SR leukemia = test system: SR leukemia
U251 CNS = test system: U251 CNS

SMILES | TGI (A498 renal) | TGI (ACHN renal) | TGI (HCT-116 colon) | TGI (K-562 leukemia) | TGI (MDA-N) | TGI (SF-268 CNS) | TGI (SF-295 CNS) | TGI (SK-MEL-2 melanoma) | TGI (SR leukemia) | TGI (U251 CNS)
N#CC(C#N)=CNC(=S)c1ccncc1 | > 100 µM | > 100 µM | > 100 µM | > 100 µM | > 100 µM | > 100 µM | > 100 µM | > 100 µM | > 100 µM | > 100 µM
C=CC[C@]12C[C@@H](C(=O)OC)N(C(=O)OC)[C@H]1N(S(=O)(=O)c1ccccc1)c1ccccc12 | > 100 µM | > 100 µM | > 100 µM | > 100 µM | > 100 µM | > 100 µM | – | > 100 µM | > 100 µM | > 100 µM
C=C[C@@H]1C(CO)=CCC2[C@H]1CCC1C(C)(C)C(=O)CC[C@]21C (stereo partly specified) | > 100 µM | > 100 µM | > 100 µM | > 100 µM | > 100 µM | > 100 µM | > 100 µM | > 100 µM | > 100 µM | > 100 µM
O=c1c2ccccc2nc2[nH][nH]c(=S)n12 | > 100 µM | > 100 µM | > 100 µM | > 100 µM | > 100 µM | > 100 µM | > 100 µM | > 100 µM | > 100 µM | > 100 µM
CN(C)CCCN1C(=S)N(CCCN(C)C)c2c3cc(O)ccc3nc3c([N+](=O)[O-])ccc1c23 | 5.47 µM | 11 µM | 6.07 µM | > 33 µM | 34.9 µM | 7 µM | 19 µM | 15.2 µM | > 22.5 µM | 28 µM
Nc1c(-c2cccc3ccccc23)c2ccc([N+](=O)[O-])cc2c(=O)n1-c1nc2ccccc2s1 | > 100 µM | > 100 µM | > 40.2 µM | > 100 µM | > 31.6 µM | > 31.7 µM | > 34.2 µM | 19.2 µM | > 100 µM | > 50.5 µM
CC(C)/C(Cl)=N\OC(=O)Nc1ccc(C#N)cc1 | 27.7 µM | 19 µM | 17.1 µM | 4.82 µM | 17.3 µM | 36.7 µM | 33.2 µM | 25.6 µM | > 25.6 µM | 31.9 µM
O=C(/C=C/c1ccsc1)c1ccsc1 | > 100 µM | 42.6 µM | 30.3 µM | – | 49.7 µM | > 100 µM | > 100 µM | > 100 µM | 46.5 µM | 37.7 µM
Cc1c(S(=O)(=O)/N=C(\N)Nc2ccc(Cl)cc2)sc2ccc(Cl)cc12 | 30.1 µM | 32.2 µM | 31.5 µM | > 100 µM | 47.1 µM | 32 µM | 46.7 µM | 33.9 µM | > 100 µM | 30.3 µM
CCOc1cc(C2CC(c3ccc(NS(=O)(=O)c4cc([N+](=O)[O-])ccc4C)cc3)=NN2C(=O)c2ccccc2)ccc1O (stereo unspecified) | 44.3 µM | 85.3 µM | 56.5 µM | > 100 µM | 70.6 µM | > 100 µM | 87.7 µM | 30.9 µM | > 100 µM | > 100 µM
CCCNC(=O)CCC(C)[C@H]1CCC2C3C(C[C@H](OC(C)=O)[C@@]21C)[C@@]1(C)CCC2(C[C@H]1C[C@H]3OC(C)=O)OOC1(CCC(C)CC1)OO2 (stereo partly specified) | 74.5 µM | 4.08 µM | > 100 µM | > 100 µM | 28.6 µM | 50.8 µM | 52.5 µM | 52.9 µM | 36.5 µM | 30.6 µM
Oc1ccccc1/C=N/c1nc2cc3sc(/N=C/c4ccccc4O)nc3cc2s1 | > 100 µM | > 100 µM | > 100 µM | > 100 µM | > 100 µM | > 100 µM | > 100 µM | > 100 µM | > 42.1 µM | > 100 µM
O=C(N=Nc1cc(Cl)ccc1Cl)NNc1cc(Cl)ccc1Cl | 82.3 µM | – | 33.6 µM | 54.6 µM | 84.4 µM | – | > 100 µM | 51.5 µM | > 100 µM | 31.3 µM
Cc1ccccc1C(O)(c1nccn1C)c1nccn1C | > 100 µM | > 100 µM | > 100 µM | > 100 µM | > 100 µM | > 100 µM | > 100 µM | > 100 µM | > 100 µM | > 100 µM
CN(C)Cc1cc(C(=O)/C=C/c2ccc(O)cc2)cc(CN(C)C)c1O | > 100 µM | 53.3 µM | > 100 µM | > 100 µM | > 100 µM | > 100 µM | > 100 µM | > 100 µM | 69.5 µM | 32.2 µM
O=C1C[C@H](Sc2ccccc2)C2(OCCO2)[C@@H](Sc2ccccc2)C1 | > 66.7 µM | 5.62 µM | 4.81 µM | 0.673 µM | 6.83 µM | 8.83 µM | 17.9 µM | 26.3 µM | 1.22 µM | 6.76 µM
